Source: patent US20240301409A1, “Chemically Modified Small Activating RNA” (RACTIGEN THERAPEUTICS, priority 2021, published 2024)

Tested on: T24 cells
Experiment: Cellular proliferation assay (CCK8) in T24 cells, alone and combined with Mitomycin C or valrubicin
Assay type: cell-based, human
Outline: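 Cells transfected with saRNA RAG1-40-31 (0.1–50 nM) for 24 h, then Mitomycin C or valrubicin (1–10000 nM) added in paired concentrations; single-agent saRNA at 10 nM for 72 h. Viability by CCK8 absorbance at 450 nm after 1 h at 37 °C, as % of blank transfection control.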

RAG1-40-31: saRNA duplex: sense fCfCAACUCAUUCUCCAAG*U*C (SEQ ID NO 16); antisense U*A*fCfUfUGGAGAAfUGAGfUfUGG*fC*A (SEQ ID NO 12) (sense CCAACUCAUUCUCCAAGUC; antisense UACUUGGAGAAUGAGUUGGCA; 2'-F and phosphorothioate modifications; modified_base (1)..(2) (1,2)=2′-fluoro; modified_base (17)..(19) (17,18,19)=phosphorothioate (PS) backbone modification; modified_base (2)..(21) (2,3,19,20,21)=phosphorothioate (PS) backbone modification; modified_base (3)..(20) (3,4,5,12,16,17,20)=2′-fluoro)
Relative proliferation proportion of T24 cells (RAG1-40-31 50 nM + valrubicin 1000 nm): 10.9%
Relative proliferation proportion of T24 cells (RAG1-40-31 50 nM + valrubicin 10000 nm): 3.1%
Relative proliferation proportion of T24 cells (RAG1-40-31 50 nM, Control (no MMC)): 14.7%
Relative proliferation proportion of T24 cells (RAG1-40-31 50 nM, Control (no valrubicin)): 13.8%
Combination Index (CI) (T24 cells, RAG1-40-31 0.1 nM + MMC 1 nM): 0.42
Combination Index (CI) (T24 cells, RAG1-40-31 0.1 nM + MMC 10 nM): 1.59
Combination Index (CI) (T24 cells, RAG1-40-31 0.1 nM + MMC 100 nM): 0.64
Combination Index (CI) (T24 cells, RAG1-40-31 0.1 nM + MMC 1000 nM): 0.49
Combination Index (CI) (T24 cells, RAG1-40-31 0.1 nM + MMC 10000 nM): 1.05
Combination Index (CI) (T24 cells, RAG1-40-31 0.1 nM + Valrubicin 10000 nM): 0.38
Combination Index (CI) (T24 cells, RAG1-40-31 0.1 nM + valrubicin 1 nM): 1.9
Combination Index (CI) (T24 cells, RAG1-40-31 0.1 nM + valrubicin 10 nM): 17.16
Combination Index (CI) (T24 cells, RAG1-40-31 0.1 nM + valrubicin 100 nM): 11.04
Combination Index (CI) (T24 cells, RAG1-40-31 0.1 nM + valrubicin 1000 nM): 1.48
Combination Index (CI) (T24 cells, RAG1-40-31 0.5 nM + MMC 1 nM): 0.97
Combination Index (CI) (T24 cells, RAG1-40-31 0.5 nM + MMC 10 nM): 1.40
Combination Index (CI) (T24 cells, RAG1-40-31 0.5 nM + MMC 100 nM): 0.67
Combination Index (CI) (T24 cells, RAG1-40-31 0.5 nM + MMC 1000 nM): 0.46
Combination Index (CI) (T24 cells, RAG1-40-31 0.5 nM + MMC 10000 nM): 1.06
Combination Index (CI) (T24 cells, RAG1-40-31 0.5 nM + Valrubicin 10000 nM): 0.4
Combination Index (CI) (T24 cells, RAG1-40-31 0.5 nM + valrubicin 1 nM): 2.71
Combination Index (CI) (T24 cells, RAG1-40-31 0.5 nM + valrubicin 10 nM): 6.02
Combination Index (CI) (T24 cells, RAG1-40-31 0.5 nM + valrubicin 100 nM): 8.68
Combination Index (CI) (T24 cells, RAG1-40-31 0.5 nM + valrubicin 1000 nM): 0.92
Combination Index (CI) (T24 cells, RAG1-40-31 1 nM + MMC 1 nM): 0.96
Combination Index (CI) (T24 cells, RAG1-40-31 1 nM + MMC 10 nM): 0.88
Combination Index (CI) (T24 cells, RAG1-40-31 1 nM + MMC 100 nM): 0.69
Combination Index (CI) (T24 cells, RAG1-40-31 1 nM + MMC 1000 nM): 0.41
Combination Index (CI) (T24 cells, RAG1-40-31 1 nM + MMC 10000 nM): 0.84
Combination Index (CI) (T24 cells, RAG1-40-31 1 nM + Valrubicin 10000 nM): 0.33
Combination Index (CI) (T24 cells, RAG1-40-31 1 nM + valrubicin 1 nM): 1.23
Combination Index (CI) (T24 cells, RAG1-40-31 1 nM + valrubicin 10 nM): 0.92
Combination Index (CI) (T24 cells, RAG1-40-31 1 nM + valrubicin 100 nM): 1.02
Combination Index (CI) (T24 cells, RAG1-40-31 1 nM + valrubicin 1000 nM): 0.93
Combination Index (CI) (T24 cells, RAG1-40-31 5 nM + MMC 1 nM): 0.61
Combination Index (CI) (T24 cells, RAG1-40-31 5 nM + MMC 10 nM): 0.60
Combination Index (CI) (T24 cells, RAG1-40-31 5 nM + MMC 100 nM): 0.45
Combination Index (CI) (T24 cells, RAG1-40-31 5 nM + MMC 1000 nM): 0.24
Combination Index (CI) (T24 cells, RAG1-40-31 5 nM + MMC 10000 nM): 0.46
Combination Index (CI) (T24 cells, RAG1-40-31 5 nM + Valrubicin 10000 nM): 0.12
Combination Index (CI) (T24 cells, RAG1-40-31 5 nM + valrubicin 1 nM): 0.73
Combination Index (CI) (T24 cells, RAG1-40-31 5 nM + valrubicin 10 nM): 0.59
Combination Index (CI) (T24 cells, RAG1-40-31 5 nM + valrubicin 100 nM): 0.99
Combination Index (CI) (T24 cells, RAG1-40-31 5 nM + valrubicin 1000 nM): 0.47
Combination Index (CI) (T24 cells, RAG1-40-31 10 nM + MMC 1 nM): 0.52
Combination Index (CI) (T24 cells, RAG1-40-31 10 nM + MMC 10 nM): 0.77
Combination Index (CI) (T24 cells, RAG1-40-31 10 nM + MMC 100 nM): 0.47
Combination Index (CI) (T24 cells, RAG1-40-31 10 nM + MMC 1000 nM): 0.19
Combination Index (CI) (T24 cells, RAG1-40-31 10 nM + MMC 10000 nM): 0.30
Combination Index (CI) (T24 cells, RAG1-40-31 10 nM + Valrubicin 10000 nM): 0.09
Combination Index (CI) (T24 cells, RAG1-40-31 10 nM + valrubicin 1 nM): 0.82
Combination Index (CI) (T24 cells, RAG1-40-31 10 nM + valrubicin 10 nM): 0.62
Combination Index (CI) (T24 cells, RAG1-40-31 10 nM + valrubicin 100 nM): 0.83
Combination Index (CI) (T24 cells, RAG1-40-31 10 nM + valrubicin 1000 nM): 0.63
Combination Index (CI) (T24 cells, RAG1-40-31 25 nM + MMC 1 nM): 0.92
Combination Index (CI) (T24 cells, RAG1-40-31 25 nM + MMC 10 nM): 1.38
Combination Index (CI) (T24 cells, RAG1-40-31 25 nM + MMC 100 nM): 0.73
Combination Index (CI) (T24 cells, RAG1-40-31 25 nM + MMC 1000 nM): 0.28
Combination Index (CI) (T24 cells, RAG1-40-31 25 nM + MMC 10000 nM): 0.36
Combination Index (CI) (T24 cells, RAG1-40-31 25 nM + Valrubicin 10000 nM): 0.1
Combination Index (CI) (T24 cells, RAG1-40-31 25 nM + valrubicin 1 nM): 0.97
Combination Index (CI) (T24 cells, RAG1-40-31 25 nM + valrubicin 10 nM): 1.25
Combination Index (CI) (T24 cells, RAG1-40-31 25 nM + valrubicin 100 nM): 1.25
Combination Index (CI) (T24 cells, RAG1-40-31 25 nM + valrubicin 1000 nM): 0.67
relative proliferation proportions of cells (T24 cells, RAG1-40-31 25 nM and 50 nM + Mitomycin C 1, 10, 100, 1000 and 10000 nM): lower than 21%
relative proliferation proportion of cells (T24 cells, RAG1-40-31 25 nM and 50 nM + valrubicin 1, 10, 100, 1000 and 10000 nM): lower than 21%
Combination Index (CI) (T24 cells, RAG1-40-31 50 nM + MMC 1 nM): 2.59
Combination Index (CI) (T24 cells, RAG1-40-31 50 nM + MMC 10 nM): 2.60
Combination Index (CI) (T24 cells, RAG1-40-31 50 nM + MMC 100 nM): 1.31
Combination Index (CI) (T24 cells, RAG1-40-31 50 nM + MMC 1000 nM): 0.50
Combination Index (CI) (T24 cells, RAG1-40-31 50 nM + MMC 10000 nM): 0.47
Combination Index (CI) (T24 cells, RAG1-40-31 50 nM + Valrubicin 10000 nM): 0.19
Combination Index (CI) (T24 cells, RAG1-40-31 50 nM + valrubicin 1 nM): 2.12
Combination Index (CI) (T24 cells, RAG1-40-31 50 nM + valrubicin 10 nM): 2.3
Combination Index (CI) (T24 cells, RAG1-40-31 50 nM + valrubicin 100 nM): 2.3
Combination Index (CI) (T24 cells, RAG1-40-31 50 nM + valrubicin 1000 nM): 1.04
relative proliferation proportions of cells (T24 cells, RAG1-40-31 0.1-50 nM + Mitomycin C 1000 and 10000 nM): lower than 18%
relative proliferation proportions of cells (T24 cells, RAG1-40-31 0.1-50 nM + valrubicin 1000 nM and 10000 nM): lower than 60%
relative proliferation proportions of cells (T24 cells, RAG1-40-31 5-50 nM + Mitomycin C 1, 10, 100, 1000 and 10000 nM): lower than 40%
relative proliferation proportions of cells (T24 cells, RAG1-40-31 5-50 nM + valrubicin 1, 10, 100, 1000 and 10000 nM): lower than 40%
effect of combined use with Mitomycin C or valrubicin, in words (T24 tumor cells): synergistic effect
